Measured values from patent EP4692094A1 (Beijing Konruns Pharmaceutical Co., Ltd., priority 2023, dated 2024).

Legend:
[1] = Assay for plasma protein binding rate (equilibrium dialysis), mouse plasma; format: in vitro ADME; details: dialysis 6 h at 37 °C, read-out: Mouse (Fu%)
Method: (§1) 1.1 Preparation of compounds: The compounds prepared in the examples were each dissolved in dimethylsulfoxide to give solutions at a concentration of 10 mmol/L. • 1) The example compounds were each diluted from 10 mmol/L stock solution to 0.2 mmol/L, i.e., 1 µL of the compound was added to 49 µL of DMSO; • 2) 3 µL of 0.2 mmol/L test compounds were added to 597 µL of blood plasma, and the mixtures were vortexed at 1000 rpm for 2 min; • 3) 50 µL of the plasma containing the drug in 2) was taken, 50 µL of PBS was added, and 300 µL of methanol internal standard* was added to serve as a sample T0; • 4) 120 µL of the plasma containing the drug in 2) was taken and added to one side of an HTD device membrane, and 120 µL of PBS was added to the other side of the membrane; a breathable film was covered, and the plasma and the residual sample in 2) were balanced at 37 °C (100 rpm and 5% CO2) for 6 h; • 5) 50 µL of the dialyzed plasma side sample was taken, 50 µL of PBS was added, and 300 µL of methanol internal standard* was added to serve as a sample P; • 6) 50 µL of the dialyzed PBS side sample was taken, 50 µL of blank plasma was added, and 300 µL of methanol internal standard* was added to serve as a sample B; • 7) 50 µL of the plasma containing the drug in 2) was taken, 50 µL of PBS was added, and 300 µL of methanol internal standard* was added to serve as a sample T6; • 8) All samples were vortexed, mixed homogeneously, and then centrifuged at 3220 g for 40 min at 4 °C; • 9) 100 µL of the supernatant and 100 µL of purified water were mixed homogenously for liquid chromatography-mass spectrometry.
(§2) An internal standard method was used, and the plasma protein binding rate, recovery rate, and residual percentage were calculated by using Excel according to the ratio of the peak area of the sample to the peak area of the internal standard. Free rate(%) = (RatioB)/(RatioP) × 100% [formula] Binding rate(%) = 100%−Free rate% [formula] Recovery rate(%) = (RatioB + RatioP)/(RatioT0) × 100% [formula] Remaining percentage(%) = (RatioT6)/(RatioT0) × 100% [formula]
(§3) RatioB: a ratio of the peak area of the test substance on the PBS side to the peak area of the internal standard; RatioP: a ratio of the peak area of the test substance on the plasma side to the peak area of the internal standard; RatioT6: a ratio of the peak area of the sample after incubation with the test substance for 6 h to the peak area of the internal standard; RatioT0: a ratio of the peak area of the sample after incubation with the test substance for 0 h to the peak area of the internal standard. Table 8. Plasma protein binding rate (Fu%) data for various species of example compounds

[2] = Assay for plasma protein binding rate (equilibrium dialysis), human plasma; format: in vitro ADME; details: dialysis 6 h at 37 °C, read-out: Human (Fu%)
Method: as §1, §2, §3

[3] = Assay for plasma protein binding rate (equilibrium dialysis), dog plasma; format: in vitro ADME; details: dialysis 6 h at 37 °C, read-out: Dog (Fu%)
Method: as §1, §2, §3

[4] = Assay for plasma protein binding rate (equilibrium dialysis), rat plasma; format: in vitro ADME; details: dialysis 6 h at 37 °C, read-out: Rat (Fu%)
Method: as §1, §2, §3

[5] = In-vivo pharmacokinetic study in rats; set-up: species or system SD female rats; details: female, SD, rat, plasma, po, intragastric administration, 5 mg/kg; for AUC(0-t): read-out: AUC0-24h
Method: 1.1 Instrument: high-performance liquid chromatograph: SHIMADZU LC-30AD; mass spectrum: AB SCIEX mass spectrometer Triple Quad 5500; all measured data were calculated and processed using Microsoft Excel, and relevant pharmacokinetic parameters were calculated using WinNonlin software. The main obtained kinetic parameters are Tmax, T1/2, Cmax, AUC0-24 h, and AUCinf. […] Sample injection amount: 1 µL.
1.2 Animals: three SD female rats were used. The body weight range was 180-300 g. After purchase, the rats were bred in the experimental animal center for two days for later use. The rats were fasted 12 h before administration and 4 h after administration, and given ad libitum access to water during the assay. Blood samples were taken at predetermined time points after intragastric administration.
1.3 Vehicle: 0.5% HPMC (hydroxypropyl methylcellulose) + 0.4% Tween80 + 99.1% water. Preparation of intragastric administration solution: The compound was precisely weighed, the vehicle was added, and then the drug was completely dissolved by ultrasonication at room temperature for 5 min and prepared into a 0.5 mg/mL solution. After the intragastric administration, blood samples were taken at 0.083 h, 0.25 h, 0.5 h, 1.0 h, 2.0 h, 4.0 h, 7.0 h, and 24 h. The blood collection mode is as follows: 0.2 mL of the jugular vein blood was collected, EDTA-K2 was used as an anticoagulation agent, the collected blood sample was transferred into a microcentrifuge tube containing the anticoagulation agent, and the tube was centrifuged at 4 °C and 4000 g for 5 min to separate the plasma. All plasma samples collected were stored at -75±15 °C until analysis.
The compound was precisely weighed and prepared into a standard curve working solution and a quality control working solution at different concentrations. The blank plasma was added and prepared into a plasma standard curve and a quality control sample. LC/MS/MS analysis was performed after pretreatment using a protein precipitation method, and then the concentration of the compounds described above in the plasma was measured. All measured data were collected and processed by the relevant software, and pharmacokinetic parameters were calculated using Winnonlin software. Table 9. Pharmacokinetic parameters of some compounds in the examples in rats

[6] = target: T1, KAT6A (Homo sapiens, UniProt Q92794); experiment: Enzymatic activity assay for KAT6A acetyltransferase (TR-FRET, acetylation of histone substrate H3); format: biochemical
T1 construct: purchased active motife (Active Motif) 81223
How it was run: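 TR-FRET detection of biotinylated H3 acetylation by KAT6A with acetyl-CoA; compounds in 10-point 3-fold dilution (0.5% DMSO final) preincubated with enzyme 10 min at 25 °C, then 90 min reaction and 60 min Eu-antibody/ULight-SA detection at 25 °C. HTRF 665/615 ratio normalised to DMSO (0%) and top-dose control (100%); IC50 by nonlinear fit.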

T1 sequence (Q92794 whole entry): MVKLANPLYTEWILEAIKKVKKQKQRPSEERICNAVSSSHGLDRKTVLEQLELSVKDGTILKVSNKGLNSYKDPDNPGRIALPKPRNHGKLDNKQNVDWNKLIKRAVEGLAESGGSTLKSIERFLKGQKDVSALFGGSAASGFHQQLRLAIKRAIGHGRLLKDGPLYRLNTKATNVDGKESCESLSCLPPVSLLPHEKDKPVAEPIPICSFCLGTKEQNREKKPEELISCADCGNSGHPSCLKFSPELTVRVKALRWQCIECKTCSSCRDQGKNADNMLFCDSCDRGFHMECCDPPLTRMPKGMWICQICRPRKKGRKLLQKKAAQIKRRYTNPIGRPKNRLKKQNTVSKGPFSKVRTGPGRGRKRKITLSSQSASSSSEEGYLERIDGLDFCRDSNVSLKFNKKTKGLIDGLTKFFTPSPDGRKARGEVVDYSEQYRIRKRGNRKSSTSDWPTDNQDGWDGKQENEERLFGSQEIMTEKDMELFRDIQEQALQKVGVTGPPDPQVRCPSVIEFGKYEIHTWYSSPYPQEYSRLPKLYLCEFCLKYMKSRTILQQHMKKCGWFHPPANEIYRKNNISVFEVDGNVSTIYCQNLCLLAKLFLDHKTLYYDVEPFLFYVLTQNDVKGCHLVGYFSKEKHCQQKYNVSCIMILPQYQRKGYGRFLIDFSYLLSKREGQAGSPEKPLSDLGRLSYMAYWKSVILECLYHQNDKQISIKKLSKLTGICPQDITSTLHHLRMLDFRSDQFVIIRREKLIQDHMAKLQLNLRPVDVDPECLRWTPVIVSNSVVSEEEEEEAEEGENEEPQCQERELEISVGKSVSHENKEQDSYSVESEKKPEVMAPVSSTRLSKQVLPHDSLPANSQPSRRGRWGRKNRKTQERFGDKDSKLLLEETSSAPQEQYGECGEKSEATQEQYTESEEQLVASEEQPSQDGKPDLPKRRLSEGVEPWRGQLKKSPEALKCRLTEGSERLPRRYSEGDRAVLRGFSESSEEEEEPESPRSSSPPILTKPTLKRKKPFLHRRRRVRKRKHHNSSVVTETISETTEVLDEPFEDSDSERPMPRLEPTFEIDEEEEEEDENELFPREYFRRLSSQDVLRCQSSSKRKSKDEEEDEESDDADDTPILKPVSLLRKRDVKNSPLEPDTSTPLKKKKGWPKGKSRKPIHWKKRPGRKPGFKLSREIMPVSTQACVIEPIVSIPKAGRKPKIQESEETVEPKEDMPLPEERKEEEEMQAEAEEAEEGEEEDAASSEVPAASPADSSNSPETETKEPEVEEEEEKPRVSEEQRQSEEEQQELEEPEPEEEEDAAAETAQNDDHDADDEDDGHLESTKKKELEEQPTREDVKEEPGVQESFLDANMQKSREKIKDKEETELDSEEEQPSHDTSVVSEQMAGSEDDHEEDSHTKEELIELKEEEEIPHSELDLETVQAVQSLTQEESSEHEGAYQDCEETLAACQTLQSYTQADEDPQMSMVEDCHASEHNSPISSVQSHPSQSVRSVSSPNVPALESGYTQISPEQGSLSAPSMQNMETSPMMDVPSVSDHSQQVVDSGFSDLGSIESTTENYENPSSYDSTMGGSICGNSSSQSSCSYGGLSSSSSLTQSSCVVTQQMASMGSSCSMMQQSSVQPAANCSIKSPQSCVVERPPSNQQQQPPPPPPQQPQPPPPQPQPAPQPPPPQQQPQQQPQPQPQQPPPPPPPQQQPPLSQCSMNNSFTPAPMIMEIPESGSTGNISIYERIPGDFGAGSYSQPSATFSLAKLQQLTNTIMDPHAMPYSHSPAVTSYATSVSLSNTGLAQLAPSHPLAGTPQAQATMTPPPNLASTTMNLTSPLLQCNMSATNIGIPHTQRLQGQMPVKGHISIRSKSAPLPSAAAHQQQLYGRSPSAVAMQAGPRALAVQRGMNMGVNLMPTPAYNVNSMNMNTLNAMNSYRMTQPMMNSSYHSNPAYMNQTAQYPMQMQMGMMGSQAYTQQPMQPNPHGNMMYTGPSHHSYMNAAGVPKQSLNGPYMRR

SMILES	fraction unbound at 6 h, 1 µM [1]	fraction unbound at 6 h, 1 µM [2]	fraction unbound at 6 h, 1 µM [3]	fraction unbound at 6 h, 1 µM [4]	AUC(0-inf) [5] [ng·h/mL]	Cmax [5] [ng/mL]	Tmax [5] [h]	AUC(0-t) [5] [ng·h/mL]	IC50 [6] [nM]
COc1cc2c(cc1S(=O)(=O)Nc1noc3cc(Cn4cccn4)nc(OC)c13)CCO2 [Example 60, N-(6-((1H-Pyrazol-1-yl)methyl)-4-methoxyisoxazolo[4,5-c]pyridin-3-yl)-6-methoxy-2,3-dihvdrobenzofuran-5-sulfonamide]	0.0358	0.0175	0.0345	0.0516	26700	2310	2.67	26200	1.01
COc1cc2c(cc1S(=O)(=O)Nc1noc3cc(Cn4cccn4)nc(OC)c13)OCO2 [Example 57, N-(6-((1H-Pyrazol-1-yl)methyl)-4-methoxyisoxazolo[4,5-c]pyridin-3-yl)-6-methoxy-1,3-benzodioxole-5-sulfonamide]	0.0565	0.0264	–	–	–	–	–	–	0.95
COc1cc2ccoc2cc1S(=O)(=O)Nc1noc2cc(Cn3cccn3)nc(OC)c12 [Example 44, N-(6-((1H-Pyrazol-1-yl)methyl)-4-methoxyisoxazolo[4,5-c]pyridin-3-yl)-5-methoxybenzofuran-6-sulfonamide]	0.048	0.0149	0.0023	0.0176	–	–	–	–	8.28
COc1cc2cccnc2cc1S(=O)(=O)Nc1noc2cc(Cn3cccn3)nc(OC)c12 [Example 75, N-(6-((1H-Pyrazol-1-yl)methyl)-4-methoxyisoxazolo[4,5-c]pyridin-3-yl)-6-methoxyquinoline-7-sulfonamide]	0.0163	0.0091	–	–	30600	10800	0.25	30600	2.41
